Results published in article PMC10777851, “SMT-738: a novel small-molecule inhibitor of bacterial lipoprotein transport targeting Enterobacteriaceae” (Antimicrobial Agents and Chemotherapy, 2023).
pIC50: −log10 of the molar value. Values after ≈ are worked out from the molar mass of the structure shown.

Legend:
[1] = tested on: two respiratory isolates (carrying NDM-5 and TEM-OSBL) from Russia in 2019; experiment: MIC against two cefiderocol-resistant respiratory isolates; assay type: cell-based
Description: (§1) MIC tests were performed by broth microdilution in-line with CLSI susceptibility testing standards ([20], [21]) either in-house or at IHMA (Europe and USA) or JMI Laboratories using cation-adjusted Mueller Hinton Broth.

Edwardsiella tarda = experiment: MIC, panel of 100 bacterial species; assay type: cell-based
Description: as §1

Haemophilus influenzae = experiment: MIC, panel of 100 bacterial species; assay type: cell-based
Description: as §1

[2] = tested on: Haemophilus parainfluenzae; experiment: MIC, panel of 100 bacterial species; assay type: cell-based
Description: as §1

Hafnia alvei = experiment: MIC, panel of 100 bacterial species; assay type: cell-based
Description: as §1

Morganella morganii = experiment: MIC, panel of 100 bacterial species; assay type: cell-based
Description: as §1

Proteus sp. = experiment: MIC, panel of 100 bacterial species; assay type: cell-based
Description: as §1

[3] = tested on: anaerobic gut commensals such as Actinomyces sp., Bacteroides sp., Clostridioides sp., Bifidobacterium sp., Peptostreptococcus sp., and Veillonella sp.; experiment: MIC, panel of 100 bacterial species: anaerobic gut commensals; assay type: cell-based
Description: as §1

K. pneumoniae NCTC 13438 = experiment: Time-kill experiment, K. pneumoniae; assay type: cell-based, Klebsiella pneumoniae; details: 2× and 4× the MIC
Description: An overnight culture of the test strain was diluted to a viable cell density of ~10^6 CFU/mL and dispensed into 96-well plates containing dilutions of SMT-738 to yield the specified multiple of the MIC. Plates were sealed with a breathable seal and incubated under shaking conditions in a humid incubator at 37°C. At specific timepoints (t = 0, 1, 2, 4, 6, 8, and 24 h), samples were taken and plated onto MH agar plates, and colonies enumerated after overnight growth at 37°C. Viable cell numbers as log10 (CFU/mL) were then plotted against time. Where no colonies were detected, the limit of detection was 100 CFU/mL. Compound activity was scored as bactericidal if the viable cell count decreased by at least 3 log10 from the initial count.

[4] = tested on: UPEC (E. coli NCTC 13441); experiment: Frequency of resistance determination, E. coli; assay type: cell-based, Escherichia coli; details: for FoR Range: experiments with colonies observed
Description: (§2) The FoR of bacterial strains to test compounds was determined by plating aliquots of overnight cultures onto MH-agar plates containing dilutions of the test compound at various multiples of reference MIC as previously determined. Total viable counts of the overnight cultures were determined by spotting 10–20 µL of decimal dilutions in 1× phosphate-buffered saline (PBS) onto non-selective agar. Assay plates were incubated for up to 48 h with colonies being enumerated every 24 h. FoR was determined by dividing the number of colonies observed by the total number of viable cells plated. Representative colonies were then picked and streaked onto selective agar to confirm resistance and obtain resistant isolates. Isolates growing on selective agar were then used to initiate overnight cultures, bacteria pelleted by centrifugation, supernatant removed, and pellets stored at −80°C for subsequent DNA extraction and whole-genome sequencing. Genomic DNA was extracted using the DNeasy Blood and Tissue Kit (Qiagen), quantified using the Quant-iT TM PicoGreen TM dsDNA Assay Kit (Thermo Fisher Scientific), and normalized to 0.2 ng/µL in nuclease-free water. Library preparation and barcode addition were with the Nextera XT DNA Library Prep Kit (Illumina). KAPA Pure beads (Roche) were used for DNA purification. Samples were pooled to achieve 100× coverage of each sample and run on an Illumina Nextseq 500/550 Mid Output Kit v2.5 (150 cycles) (Illumina).

[5] = tested on: UPEC (E. coli NCTC 13441) LolC and LolE mutants; experiment: MIC fold change of resistant LolC/LolE mutants, UPEC; assay type: cell-based, Escherichia coli
Description: as §1
as §2, with “Library preparation and barcode addition were with the Nextera XT DNA Library Prep Kit (Illumina). KAPA Pure beads (Roche) were used for DNA purification. Samples were pooled to achieve 100× coverage of each sample and run on an Illumina Nextseq 500/550 Mid Output Kit v2.5 (150 cycles) (Illumina).” left out

HepG2 = experiment: Cytotoxicity (CellTiter-Glo), HepG2; assay type: cell-based; details: HepG2, 24 h
Description: HepG2 (ATCC, HB-8065) and HEK293 (ATCC, CRL-1573) were sourced from ATCC. For the cytotoxicity assay, cells were seeded onto 96-well plates, which were then incubated for 24 h in a 5% CO2 incubator at 37°C. On the day of the assay, 10-point, twofold serial dilutions of test compound were prepared in assay media (MEM + 10% FBS) in separate 96-well plates. Assay plates were removed from the incubator, and the media from all of the wells were removed, taking care not to disturb the cell layer. Compound-containing assay media or control media were added to the relevant wells. Assay plates were returned to the 5% CO2 incubator at 37°C for 24 h. CellTiter-Glo reagent (Promega, G7570) was used to determine the viability of the cells.

[6] = tested on: human lymphoblastoid TK6 cells; experiment: GreenScreen genotoxicity assay; assay type: cell-based; details: top concentration of 500 µM (= 196.85 µg/mL)
Description: The standard GreenScreen genotoxcity assay was performed by Cyprotex, UK. The assay uses two strains of human lymphoblastoid TK6 cells, the test strain (GenM-[…]), and the non-fluorescent control strain (GenM-C01). Incorporated in the test strain is a patented green fluorescent protein (GFP) reporter system that exploits the proper regulation of the GADD45a gene, which mediates the adaptive response to genotoxic stress.

[7] = Pharmacokinetics after IV bolus in mice; assay type: in vivo, male CD-1 mice; details: 20-mg/kg bolus IV
Description: Male CD-1 mice (from Charles River, Margate UK) were administered 20 mg/kg of SMT-738 via IV bolus route. At selected timepoints, blood, kidney tissue, lung tissue, and urine were collected and progressed for further analysis. The PK parameters included initial concentration (C 0) via extrapolation, clearance (CL), volume of distribution (V ss), and AUC0-t in plasma were determined using non-compartmental analysis. Tissue partitioning values were determined with ratio of AUC0-t,kidney/AUC0-t,plasma for kidney (K p,kidney) and ratio of AUC0-t,lung/AUC0-t,plasma for lung (K p,lung). The mean recovery (%) of SMT-738 unchanged in urine was determined by amount in urine compared to the intravenously administered dose. The study was conducted by Evotec Ltd (UK).

Protein binding, rat = assay type: in vitro ADME
Protein binding, dog = assay type: in vitro ADME
[8] = Solubility in formulation vehicle; assay type: physicochemical; details: 20% Hydroxypropyl-β-cyclodextrin or phosphate buffer pH 6.0

Molecule `Cc1cnccc1-c1[nH]c(N)nc1-c1ccc2c(c1)N(C(=O)C(C)(C)N)CCO2` [SMT-738] has an MIC ([1]; first of the two respiratory isolates) of 0.25 µg/mL (≈ 0.637 µM), an MIC ([1]; second of the two respiratory isolates) of 0.5 µg/mL (≈ 1.27 µM) and an MIC (Edwardsiella tarda) of 32 µg/mL (≈ 81.5 µM). It also gave an MIC (Haemophilus influenzae) of 1 µg/mL (≈ 2.55 µM), an MIC [2] of 1 µg/mL (≈ 2.55 µM) and an MIC (Hafnia alvei) of 32 µg/mL (≈ 81.5 µM). It also gave an MIC (Morganella morganii) of over 64 µg/mL, an MIC (Proteus sp.) of 8 to 32 µg/mL and an MIC [3] of over 128 µg/mL. For the same molecule, the “bacterial burden following 24-h exposure” value (K. pneumoniae NCTC 13438) was “below the limit of detection”, the “timepoint at which bactericidal activity was observed” value (K. pneumoniae NCTC 13438) was 4 h and the “FoR Range” value ([4]; 4× MICref, 48 h) was 1.52E-09. For the same molecule, the “FoR Range” value ([4]; 8× MICref, 24 h) was 7.20E-10, the “Frequency of resistance (FoR)” value ([4]; single-step selection at 4× and 8× the MIC, after 24 and 48 h) was ≤ 10^−9 and the “MIC fold change increase” value ([5]; LolC L256R mutant) was “L256R (16×)”. For the same molecule, the “MIC fold change increase” value ([5]; LolE D264A mutant) was “D264A (128×)”, the pIC50 (HepG2) was under 3.70 and the “cytotoxicity IC50” value (HepG2) was over 78.74 µg/mL. The genotoxicity [6] was “No toxicity was observed”, the “Kp,kidney” value ([7]; AUC0-t,kidney/AUC0-t,plasma) was 44.8 and the “Kp,lung” value ([7]; AUC0-t,lung/AUC0-t,plasma) was 8.1. The “eliminated unchanged into the urine” value ([7]; over a 24-h period) was “approximately 29.5%”, the CL ([7]; plasma) was 59 mL/min/kg and the Vss ([7]; plasma) was 4.3 L/kg. The C0 ([7]; plasma, via extrapolation) was 18,386 ng/mL, the protein binding (Protein binding, rat) was 64.4% and the protein binding (Protein binding, dog) was 50.6%. It also gave a Solubility [8] of over 20 mg/mL.
